According to US8329651B2, “Method for renal disease diagnosis and prognosis using annexin A1 and Rab23 as markers” (National Defense Medical Center, priority 2009, dated 2012):

Assay: Adriamycin-induced focal segmental glomerulosclerosis (FSGS) in mice: urine protein, serum creatinine, BUN
Assay type: in vivo
Settings: 8-week-old BALB/c mice, adriamycin 0.1 mg/per 10 g body weight intravenously, day 15
Protocol: 8-week-old BALB/c mice were injected with adriamycin (0.1 mg/per 10 g body weight) intravenously to induce Focal Segmental Glomerulosclerosis (FSGS). Blood, urine, and kidney tissue samples were collected at days 0, 7, 15, and 20 after injection. More specifically, the blood samples were collected from the retro-orbital venous plexus and the urine samples were collected by gentle abdominal massage. The samples were centrifuged to remove insoluble substances and then stored in liquid nitrogen. When urine proteins are to be measured, the corresponding samples were collected on parafilms. The modified Bradford protein assay was performed to examine urine protein concentration, the picric acid colorimetric kit (Sigma 555-1) was used for detecting creatinine, and an urease assay kit provided by Sigma (640-5) was used for determining the level of blood urea nitrogen (BUN).

serum creatinine level (control mice 0.48±0.03): 2.02 ± 0.17 mg/dL | urine protein level (control mice 0.59±0.082): 16.84 ± 3.13 mg/mL | BUN (blood urea nitrogen) level (control mice 21.85±1.99): 71.42 ± 8.09 mg/dL
SMILES: COc1cccc2c1C(=O)c1c(O)c3c(c(O)c1C2=O)C[C@@](O)(C(=O)CO)C[C@@H]3O[C@H]1C[C@H](N)[C@H](O)[C@H](C)O1 [adriamycin]
